Eight compounds from the NIST ThermoML archive (doi:10.1021/je0602925) can be followed below.

± gives the expanded uncertainty stated by the source.

This data set is described as follows: activity coefficient (dimensionless); of the first substance listed, at infinite dilution; xn = mol fraction of the nth substance listed. As to conditions: Liquid, Chromatography, x1 = 0.

With `C#CCCCCC` [1-heptyne] + CCCCCCCCCCCCCC[P+](CCCCCC)(CCCCCC)CCCCCC.F[B-](F)(F)F, the activity coefficient turned out to be 0.374 ± 0.033 (308.15 K), 0.389 ± 0.034 (318.15 K) and 0.399 ± 0.034 (328.15 K).
For the compound `C1CCCC1` [cyclopentane] + CCCCCCCCCCCCCC[P+](CCCCCC)(CCCCCC)CCCCCC.[Cl-], the activity coefficient reads like this: (308.15 K) 0.579 ± 0.041; (318.15 K) 0.576 ± 0.041; (328.15 K) 0.574 ± 0.041.
The matching figures for `C=CCCCCCC` [oct-1-ene] + CCCCCCCCCCCCCC[P+](CCCCCC)(CCCCCC)CCCCCC.O=S(=O)([N-]S(=O)(=O)C(F)(F)F)C(F)(F)F: 0.617 ± 0.043, 0.605 ± 0.042 and 0.598 ± 0.042.
For `CCCCCC` [hexane] + CCCCCCCCCCCCCC[P+](CCCCCC)(CCCCCC)CCCCCC.[Cl-] the same measures were 0.766 ± 0.05, 0.753 ± 0.05 and 0.746 ± 0.049.
For `CO` [methanol] + CCCCCCCCCCCCCC[P+](CCCCCC)(CCCCCC)CCCCCC.F[B-](F)(F)F the same measures were 6.68 ± 0.46, 6.38 ± 0.43 and 6.1 ± 0.42.
Take `C#CCCCCCC` [1-octyne] + CCCCCCCCCCCCCC[P+](CCCCCC)(CCCCCC)CCCCCC.O=S(=O)([N-]S(=O)(=O)C(F)(F)F)C(F)(F)F: the activity coefficient by setting is: (308.15 K) 0.511 ± 0.038; (318.15 K) 0.524 ± 0.039; (328.15 K) 0.532 ± 0.039.
As to `C1CCCCC1` [cyclohexane] + CCCCCCCCCCCCCC[P+](CCCCCC)(CCCCCC)CCCCCC.O=S(=O)([N-]S(=O)(=O)C(F)(F)F)C(F)(F)F, the activity coefficient by setting is: (308.15 K) 0.612 ± 0.043; (318.15 K) 0.609 ± 0.043; (328.15 K) 0.607 ± 0.042.
`CCCCCC` [hexane] + CCCCCCCCCCCCCC[P+](CCCCCC)(CCCCCC)CCCCCC.O=S(=O)([N-]S(=O)(=O)C(F)(F)F)C(F)(F)F: the activity coefficient (308.15 K) amounted to 0.766 ± 0.05, the activity coefficient (318.15 K) is 0.751 ± 0.049 and the activity coefficient (328.15 K) amounted to 0.742 ± 0.049.
